pIC50: −log10 of the molar value. Where a name gives a salt, the structure may show the parent alone.

T1 sequence (Q16584 whole entry): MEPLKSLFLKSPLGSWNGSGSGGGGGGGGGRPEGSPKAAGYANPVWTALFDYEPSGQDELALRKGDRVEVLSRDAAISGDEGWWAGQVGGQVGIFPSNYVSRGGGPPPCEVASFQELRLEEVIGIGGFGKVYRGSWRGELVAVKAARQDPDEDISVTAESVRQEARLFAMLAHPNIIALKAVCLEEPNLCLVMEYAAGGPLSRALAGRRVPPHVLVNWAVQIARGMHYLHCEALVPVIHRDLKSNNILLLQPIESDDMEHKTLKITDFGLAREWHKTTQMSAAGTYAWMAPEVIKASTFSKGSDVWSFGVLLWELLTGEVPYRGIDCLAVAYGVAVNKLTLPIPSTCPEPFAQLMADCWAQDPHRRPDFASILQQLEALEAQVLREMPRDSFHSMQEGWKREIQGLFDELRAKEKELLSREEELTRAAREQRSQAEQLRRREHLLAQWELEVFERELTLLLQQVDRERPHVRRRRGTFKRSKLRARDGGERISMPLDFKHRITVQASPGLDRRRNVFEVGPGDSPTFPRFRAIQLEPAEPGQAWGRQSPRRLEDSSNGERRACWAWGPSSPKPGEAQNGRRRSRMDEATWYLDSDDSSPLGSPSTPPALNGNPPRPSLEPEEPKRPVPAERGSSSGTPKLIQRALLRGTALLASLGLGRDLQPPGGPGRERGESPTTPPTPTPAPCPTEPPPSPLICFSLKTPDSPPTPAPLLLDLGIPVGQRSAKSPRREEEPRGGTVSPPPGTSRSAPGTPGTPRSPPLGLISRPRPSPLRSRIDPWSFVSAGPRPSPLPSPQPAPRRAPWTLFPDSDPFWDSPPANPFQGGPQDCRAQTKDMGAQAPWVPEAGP

The assay addresses T1, MLK3 (Homo sapiens, UniProt Q16584).
T1 construct: purchased Dundee DU8313
Put plainly: Radiometric filter plate MLK3 assay. Also: 2 µM cold ATP (Km). The class given is biochemical. Conditions: read-out: MK3 IC50. On the procedure: After a twenty minute incubation, the reactions were washed through filter plates and read on a scintillation counter. Results are shown in Table 10 below, in which +++ indicates ≦0.1 μM, ++ indicates >0.1 μM and ≦1 μM, and + indicates >1 μM.
Turning to `COc1cc(-c2nc3c(nc2Cl)[nH]c(=O)n3CC2CC2)cc(OC)c1OC` [Example 119, 5-chloro-1-(cyclopropylmethyl)-6-(3,4,5-trimethoxyphenyl)-1H-imidazo[4,5-b]pyrazin-2(3H)-one], the pIC50 was < 6.00.
With `COc1cc(-c2cnc3c(c2)C(CC2CC2)(CC2CC2)C(=O)N3)cc(OC)c1OC` [Example 122, 3,3-bis(cyclopropylmethyl)-5-(3,4,5-trimethoxyphenyl)-1H-pyrrolo[2,3-b]pyridin-2(3H)-one] the figure was < 6.00; with `COc1cc(-c2cnc3c(c2)C(CC2CC2)C(=O)N3)cc(OC)c1OC` (centres unmarked) [Example 123, 3-(cyclopropylmethyl)-5-(3,4,5-trimethoxyphenyl)-1H-pyrrolo[2,3-b]pyridin-2(3H)-one], 6.00 to 7.00.
With `COc1cc(-c2cnc3[nH]c(=O)n(-c4ccc5[nH]ccc5c4)c3c2)cc(OC)c1OC` [Example 124, 1-(1H-indol-5-yl)-6-(3,4,5-trimethoxyphenyl)-1H-imidazo[4,5-b]pyridin-2(3H)-one], the pIC50 was 6.00 to 7.00.
Then `COc1cc(-c2cnc3[nH]c(=O)n(CC4CC4)c3c2)cc(OC)c1OC` [Example 125, 1-(cyclopropylmethyl)-6-(3,4,5-trimethoxyphenyl)-1H-imidazo[4,5-b]pyridin-2(3H)-one], with < 6.00; and `COc1cc(-c2cnc3ncn(-c4ccc5[nH]ccc5c4)c3n2)cc(OC)c1OC` [Example 126, 1-(1H-indol-5-yl)-6-(3,4,5-trimethoxyphenyl)-1H-imidazo[4,5-b]pyrazine], with < 6.00.
With `COc1cc(-c2cnc3[nH]c(=S)n(CC4CC4)c3n2)cc(OC)c1OC` [Example 127, 1-(cyclopropylmethyl)-6-(3,4,5-trimethoxyphenyl)-1H-imidazo[4,5-b]pyrazine-2(3H)-thione] the figure was < 6.00; with `COc1cc(-c2cnc3c(c2)C(=Cc2ccccc2)C(=O)N3)cc(OC)c1OC` [Example 130, 3-benzylidene-5-(3,4,5-trimethoxy-phenyl)-1,3-dihydro-pyrrolo[2,3-b]pyridin-2-one], < 6.00.
Then `COc1cc(-c2cnc3c(c2)C(=Cc2ccc(C(N)=O)cc2)C(=O)N3)cc(OC)c1OC` [Example 131, 4-[2-oxo-5-(3,4,5-trimethoxy-phenyl)-1,2-dihydro-pyrrolo[2,3-b]pyridin-3-ylidenemethyl]-benzamide], with 6.00 to 7.00; and `COc1cc(-c2cnc3c(c2)C(=Cc2cccc(C(N)=O)c2)C(=O)N3)cc(OC)c1OC` [Example 132, 3-[2-oxo-5-(3,4,5-trimethoxy-phenyl)-1,2-dihydro-pyrrolo[2,3-b]pyridin-3-ylidenemethyl]-benzamide], with < 6.00; and `COc1cc(-c2cnc3c(c2)C(=Cc2ccc(C#N)cc2)C(=O)N3)cc(OC)c1OC` [Example 133, 4-[2-oxo-5-(3,4,5-trimethoxy-phenyl)-1,2-dihydro-pyrrolo[2,3-b]pyridin-3-ylidenemethyl]-benzonitrile], with < 6.00.
As for `COc1cc(-c2cnc3c(c2)C(Cc2cccnc2)C(=O)N3)cc(OC)c1OC` (centres unmarked) [Example 135, 3-pyridin-3-ylmethyl-5-(3,4,5-trimethoxy-phenyl)-1,3-dihydro-pyrrolo[2,3-b]pyridin-2-one], the pIC50 is < 6.00.
With `COc1cc(-c2cnc3c(c2)C(Cc2ccncc2)C(=O)N3)cc(OC)c1OC` (centres unmarked) [Example 136, 3-pyridin-4-ylmethyl-5-(3,4,5-trimethoxy-phenyl)-1,3-dihydro-pyrrolo[2,3-b]pyridin-2-one] the figure was < 6.00.
Then `COc1cc(-c2cnc3c(c2)C(Cc2ccccc2)C(=O)N3)cc(OC)c1OC` (centres unmarked) [Example 137, 3-benzyl-5-(3,4,5-trimethoxy-phenyl)-1,3-dihydro-pyrrolo[2,3-b]pyridin-2-one], with < 6.00; and `COc1cc(-c2cnc3c(c2)C(Cc2ccc(C(N)=O)cc2)C(=O)N3)cc(OC)c1OC` (centres unmarked) [Example 138, 4-[2-oxo-5-(3,4,5-trimethoxy-phenyl)-2,3-dihydro-1H-pyrrolo[2,3-b]pyridin-3-ylmethyl]-benzamide], with < 6.00; and `CN1CCN(Cc2ccc(-c3cnc4[nH]cc(-c5ccc6[nH]ccc6c5)c4c3)cc2)CC1=O` [Example 141, 4-{4-[3-(1H-indol-5-yl)-1H-pyrrolo[2,3-b]pyridin-5-yl]-benzyl}-1-methyl-piperazin-2-one], with > 7.00.
For the molecule `O=C1CN(Cc2ccc(-c3cnc4[nH]cc(-c5ccc6[nH]ccc6c5)c4c3)cc2)CCN1` [Example 142, 4-{4-[3-(1H-indol-5-yl)-1H-pyrrolo[2,3-b]pyridin-5-yl]-benzyl}-piperazin-2-one], the pIC50 is > 7.00.
Then `CN1CCN(Cc2cccc(-c3cnc4[nH]cc(-c5ccc6[nH]ccc6c5)c4c3)c2)CC1=O` [Example 143, 4-{3-[3-(1H-indol-5-yl)-1H-pyrrolo[2,3-b]pyridin-5-yl]-benzyl}-1-methyl-piperazin-2-one], with > 7.00.
With `CC(C)(C)OC(=O)N1CCN(Cc2ccc(-c3cnc4[nH]cc(-c5ccc6[nH]ccc6c5)c4c3)cc2)CC1` [Example 144, 4-{4-[3-(1H-indol-5-yl)-1H-pyrrolo[2,3-b]pyridin-5-yl]-benzyl}-piperazine-1-carboxylic acid tert-butyl ester] the figure was > 7.00.
Then `CN1CCN(C(=O)c2ccc(-c3cnc4[nH]cc(-c5ccc6[nH]ccc6c5)c4c3)cc2)CC1` [Example 145, {4-[3-(1H-indol-5-yl)-1H-pyrrolo[2,3-b]pyridin-5-yl]-phenyl}-(4-methyl-piperazin-1-yl)-methanone], with 6.00 to 7.00.
On to `CC(=O)N1CCN(C(=O)c2ccc(-c3cnc4[nH]cc(-c5ccc6[nH]ccc6c5)c4c3)cc2)CC1` [Example 146, 1-(4-{4-[3-(1H-indol-5-yl)-1H-pyrrolo[2,3-b]pyridin-5-yl]-benzoyl}piperazin-1-yl)-ethanone], for which the negative logarithm of the IC50 (pIC50) was > 7.00.
With `CC(C)(C)OC(=O)N1CCN(C(=O)c2ccc(-c3cnc4[nH]cc(-c5ccc(C(N)=O)cc5)c4c3)cc2)CC1` [Example 148, 4-{4-[3-(4-carbamoyl-phenyl)-1H-pyrrolo[2,3-b]pyridin-5-yl]-benzoyl}-piperazine-1-carboxylic acid tert-butyl ester] the figure was > 7.00; with `NC(=O)c1ccc(-c2c[nH]c3ncc(-c4ccc(C(=O)N5CCNCC5)cc4)cc23)cc1` [Example 149, 4-{5-[4-(piperazine-1-carbonyl)-phenyl]-1H-pyrrolo[2,3-b]pyridin-3-yl}-benzamide, hydrochloride salt], > 7.00.
With `CC(C)(C)OC(=O)N1CCN(C(=O)c2cccc(-c3cnc4[nH]cc(-c5ccc(C(N)=O)cc5)c4c3)c2)CC1` [Example 151, 4-{3-[3-(4-carbamoyl-phenyl)-1H-pyrrolo[2,3-b]pyridin-5-yl]-benzoyl}-piperazine-1-carboxylic acid tert-butyl ester] the figure was > 7.00; with `COc1cc(-c2cc3c(-c4ccc(C(N)=O)cc4)c[nH]c3[n+]([O-])c2)cc(OC)c1OC` [Example 154, 4-[7-oxy-5-(3,4,5-trimethoxy-phenyl)-1H-pyrrolo[2,3-b]pyridin-3-yl]benzamide], 6.00 to 7.00; with `CN1CCN(Cc2cccc(-c3cnc4[nH]cc(-c5ccc(C(N)=O)cc5)c4c3)c2)CC1` [Example 156, 4-{5-[3-(4-methyl-piperazin-1-ylmethyl)-phenyl]-1H-pyrrolo[2,3-b]pyridin-3-yl}-benzamide], > 7.00.
With `CC(=O)N1CCN(Cc2ccc(-c3cnc4[nH]cc(-c5ccc(C(N)=O)cc5)c4c3)cc2)CC1` [Example 157, 4-{5-[4-(4-acetyl-piperazin-1-ylmethyl)-phenyl]-1H-pyrrolo[2,3-b]pyridin-3-yl}-benzamide] the figure was > 7.00; with `CN1CCN(Cc2ccc(-c3cnc4[nH]cc(-c5ccc(C(N)=O)cc5)c4c3)cc2)CC1=O` [Example 158, 4-{5-[4-(4-methyl-3-oxo-piperazin-1-ylmethyl)-phenyl]-1H-pyrrolo[2,3-b]pyridin-3-yl}-benzamide], > 7.00.
As for `CN1CCN(Cc2ccc(-c3c[nH]c4ncc(-c5ccc(C(N)=O)cc5)cc34)cc2)CC1` [Example 162, 4-{3-[4-(4-methyl-piperazin-1-ylmethyl)-phenyl]-1H-pyrrolo[2,3-b]pyridin-5-yl}-benzamide], the pIC50 was > 7.00.
Then `CN1CCN(Cc2ccc(-c3c[nH]c4ncc(-c5ccc6[nH]ccc6c5)cc34)cc2)CC1` [Example 163, 5-(1H-indol-5-yl)-3-[4-(4-methyl-piperazin-1-ylmethyl)-phenyl]-1H-pyrrolo[2,3-b]pyridine], with < 6.00; and `CNC(=O)c1ccc(-c2c[nH]c3ncc(-c4ccc(CN5CCN(C)CC5)cc4)cc23)cc1` [Example 165, N-methyl-4-{5-[4-(4-methyl-piperazin-1-ylmethyl)-phenyl]-1H-pyrrolo[2,3-b]pyridin-3-yl}-benzamide], with > 7.00; and `c1cc2cc(-c3c[nH]c4ncc(-c5ccc(CN6CCOCC6)cc5)cc34)ccc2[nH]1` [Example 169, 4-(4-(3-(1H-indol-5-yl)-1H-pyrrolo[2,3-b]pyridin-5-yl)benzyl)morpholine], with > 7.00.
Then `CN1CCN(Cc2ccc(-c3cnc4[nH]cc(-c5ccc(F)cc5)c4c3)cc2)CC1` [Example 170], with < 6.00; and `CN1CCN(Cc2ccc(-c3cnc4[nH]cc(-c5ccc(C(F)(F)F)cc5)c4c3)cc2)CC1` [Example 171], with < 6.00.
With `c1ccc(CN2CCN(Cc3ccc(-c4cnc5[nH]cc(-c6ccc7[nH]ccc7c6)c5c4)cc3)CC2)cc1` [Example 178] the figure was 6.00 to 7.00; with `CC(C)(C)CC(=O)N1CCN(Cc2ccc(-c3cnc4[nH]cc(-c5ccc6[nH]ccc6c5)c4c3)cc2)CC1` [Example 182], > 7.00; with `CCOC(=O)N1CCN(Cc2ccc(-c3cnc4[nH]cc(-c5ccc6[nH]ccc6c5)c4c3)cc2)CC1` [Example 183], > 7.00.
As for `COC(=O)N1CCN(Cc2ccc(-c3cnc4[nH]cc(-c5ccc6[nH]ccc6c5)c4c3)cc2)CC1` [Example 184], the pIC50 is > 7.00.

(Values after patent publication US8846909B2, “Bicyclic heteroaryl kinase inhibitors and methods of use” (University of Rochester, priority 2010, dated 2014).)
